Results: patent US20210318292A1, “System and Method to Detect Small Molecules” (Sensorium Bio, Inc., priority 2020, published 2021)

Assays:
MOR203-1 = details: cited from earlier work
OR1A1 [1] = target: T1, OR1A1 (Homo sapiens, UniProt Q9P1Q5); details: cited from earlier work
T1 sequence (Q9P1Q5 1-309): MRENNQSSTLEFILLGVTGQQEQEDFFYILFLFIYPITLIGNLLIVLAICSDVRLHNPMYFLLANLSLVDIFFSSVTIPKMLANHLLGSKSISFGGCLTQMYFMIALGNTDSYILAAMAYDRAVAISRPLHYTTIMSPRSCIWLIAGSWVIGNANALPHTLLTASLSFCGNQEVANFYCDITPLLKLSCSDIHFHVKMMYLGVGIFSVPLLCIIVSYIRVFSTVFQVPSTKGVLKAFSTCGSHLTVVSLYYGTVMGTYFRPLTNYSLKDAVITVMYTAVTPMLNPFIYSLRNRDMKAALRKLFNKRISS

OR2W1 = target: T2, OR2W1 (Homo sapiens, UniProt Q9Y3N9); details: cited from earlier work
T2 sequence (Q9Y3N9 1-320): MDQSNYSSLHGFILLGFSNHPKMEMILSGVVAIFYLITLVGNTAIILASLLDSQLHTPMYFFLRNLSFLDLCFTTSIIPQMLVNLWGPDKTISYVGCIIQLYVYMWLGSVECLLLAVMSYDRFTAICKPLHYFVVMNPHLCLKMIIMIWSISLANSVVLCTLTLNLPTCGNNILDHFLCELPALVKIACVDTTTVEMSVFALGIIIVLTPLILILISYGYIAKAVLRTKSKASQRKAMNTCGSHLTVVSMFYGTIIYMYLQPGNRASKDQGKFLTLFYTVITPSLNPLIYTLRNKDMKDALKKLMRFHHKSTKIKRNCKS

MOR272-1 = details: cited from earlier work
mOR256 = experiment: Luminescent assay (cAMP-responsive luciferase reporter); type: cell-based; details: FIG. 6B; luciferase reporter read 5.5 hours after stimulation
OR1A1 [2] = target: T1, OR1A1; experiment: as above; type: cell-based; details: FIG. 6A; luciferase reporter read 5.5 hours after stimulation
Procedure: Cells are seeded at a density of 15,000 cells per well in a solid white 96-well microplate and allowed to adhere prior to be transfected with different plasmids including but not limited to 10 ng GPCR-expressing plasmid and 10 ng cAMP-responsive luciferase reporter plasmid. The day following the transfection, the receptor-expressing cells are then stimulated with the ligands being tested. After a period to 5.5 hours following the stimulation, the cells are lysed and the luciferase reporter activity is measured following the manufacturer protocol. The amount of luciferase activity is proportional to the ligand-mediated activation level of the exogenous GPCR. FIG. 6 is the result of luminescent assay showing dose response curves of OR1A1 for propylbenzene in FIG. 6A and 1-hexanol in FIG. 6B. The cells produce light by expressing a luciferase enzyme as a reporter readout from a cAMP secondary messenger. The ligand-mediated GPCR activation leads to intracellular cAMP accumulation which triggers a luciferase activity increase which is measured.

[3] = tested on: exogenous ethylene benzene responsive GPCR; details: pure 5 μL hanging droplet on plate lid, no direct contact; transfected human embryonic kidney cells; within minutes
Procedure: Transfected human embryonic kidney cells were seeded at 60,000 cells per well in a poly-D-lysine coated 96-well plate. The exogenous ethylene benzene responsive GPCR and calcium reporter were present in the cytosol. Pure ethylene benzene was deposited as a hanging 5 μL droplet on the plate lid. Once the plate was placed over the well, there was no direct contact between the […] and the culture medium overlaid cells.

MOR271-1 = details: cited from earlier work

| SMILES | binding to receptor MOR203-1 (MOR203-1) | binding to receptor OR1A1 (OR1A1 [1]) | binding to receptor OR2W1 (OR2W1) | binding to receptor MOR272-1 (MOR272-1) | other results |
| --- | --- | --- | --- | --- | --- |
| CCCCCCC(C)=O [2-octanone] | bind differentially | bind differentially | bind differentially | bind differentially | – |
| CCCCCCO [1-hexanol] | – | – | – | – | detection by mOR256, luminescent assay dose response curve (mOR256): detection |
| CCCc1ccccc1 [propylbenzene] | – | – | – | – | detection by OR1A1, luminescent assay dose response curve (OR1A1 [2]): detection |
| C=C.c1ccccc1 [ethylene benzene] | – | – | – | – | fluorescence of the calcium reporter after gas phase exposure [3]: measurable fluorescence increase |
| CCCCC(=O)CC [3-heptanone] | bind differentially | bind differentially | bind differentially | bind differentially | binding to receptor MOR271-1 (MOR271-1): bind differentially |
